From the supplement of paper PMC9663587

Key:
[1] = compound: CO[C@@H](C)Cn1c(=O)n(C)c2cnc3ccc(-c4cncc(C(C)(C)O)c4)cc3c21
[2] = compound: T1, CN1CC[C@H](c2c(O)cc(O)c3c(=O)cc(-c4ccccc4Cl)oc23)[C@H](O)C1 [Flavopiridol]
[3] = compound: Cc1nc(-c2cn3c(n2)-c2ccc(-c4cnn(C(C)(C)C(N)=O)c4)cc2OCC3)n(C(C)C)n1 [Taselisib/GDC0032]
[4] = compound: CN1CCN(CCOc2cc(OC3CCOCC3)c3c(Nc4c(Cl)ccc5c4OCO5)ncnc3c2)CC1 [Saracatinib/AZD0530]
[5] = compound: CN(C)CC[C@H](CSc1ccccc1)Nc1ccc(S(=O)(=O)NC(=O)c2ccc(N3CCN(Cc4ccccc4-c4ccc(Cl)cc4)CC3)cc2)cc1[N+](=O)[O-] [ABT-737]
[6] = compound: CN(C)C(=O)c1cc2cnc(Nc3ccc(N4CCNCC4)cn3)nc2n1C1CCCC1 [LEE011/Ribociclib]; assay: GR value, 72 h; higher = faster growth (1 = untreated, <0 = killing);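 note: breast cancer and non-malignant breast epithelial lines, nine half-log doses, viable cells counted by Hoechst and LIVE/DEAD dye imaging versus time-zero plates and DMSO controls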
[7] = compound: C=CC(=O)Nc1ccc(C(=O)Nc2[nH]nc3c2CN(C(=O)N[C@H](CN(C)C)c2ccccc2)C3(C)C)cc1 [YKL-5-124]; assay: as above
[8] = compound: CC(=O)c1c(C)c2cnc(Nc3ccc(N4CCNCC4)cn3)nc2n(C2CCCC2)c1=O; assay: as above
[9] = compound: CCc1cnn2c(NCc3ccc[n+]([O-])c3)cc(N3CCCC[C@H]3CCO)nc12; assay: as above
[10] = compound: T1, Flavopiridol; assay: as above
[11] = compound: CCOc1cc2ncc(C#N)c(Nc3ccc(OCc4ccccn4)c(Cl)c3)c2cc1NC(=O)/C=C/CN(C)C [Neratinib/HKI272]; assay: as above
[12] = compound: CN(C)C/C=C/C(=O)Nc1ccc(C(=O)Nc2cccc(Nc3ncc(Cl)c(-c4c[nH]c5ccccc45)n3)c2)cc1 [THZ1]; assay: as above
[13] = compound: CC(=O)c1c(C)c2cnc(Nc3ccc(N4CCN(CCOCCOCCOCCNC(=O)COc5cccc6c5C(=O)N(C5CCC(=O)NC5=O)C6=O)CC4)cn3)nc2n(C2CCCC2)c1=O [BSJ-03-123]; assay: as above
[14] = compound: CCN1CCN(Cc2ccc(Nc3ncc(F)c(-c4cc(F)c5nc(C)n(C(C)C)c5c4)n3)nc2)CC1; assay: as above
[15] = compound: CN(C)C/C=C/C(=O)Nc1ccc(C(=O)N2CCC[C@@H](Nc3ncc(Cl)c(-c4c[nH]c5ccccc45)n3)C2)cc1 [THZ531]; assay: as above
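Throughout, for GR50, 72 h: breast cancer and non-malignant breast epithelial cell lines, Deep Dye Drop or Dye Drop imaging, nine half-log doses, GR normalized to time-zero plates and DMSO-only controls.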

With MCF7 the “GR50, 72 h” value [1] was under 0.001 µM, the “GR50, 72 h” value [2] was 0.0847 µM and the “GR50, 72 h” value [3] was 0.00836 µM. For the same cell line, the “GR50, 72 h” value [4] was 0.577 µM, the “GR50, 72 h” value [5] was over 10 µM and the GR value ([6]; 0.001 µM) was 0.87 GR. The GR value ([6]; 0.003162 µM) was 0.786 GR, the GR value ([6]; 0.01 µM) was 0.682 GR and the GR value ([6]; 0.03162 µM) was 0.651 GR. It also gave a GR value ([6]; 0.1 µM) of 0.53 GR, a GR value ([6]; 0.3162 µM) of 0.414 GR and a GR value ([6]; 1 µM) of 0.407 GR. For the same cell line, the GR value ([6]; 3.162 µM) was 0.275 GR, the GR value ([6]; 10 µM) was 0.295 GR and the GR value ([7]; 0.001 µM) was 0.557 GR. It also gave a GR value ([7]; 0.003162 µM) of 0.403 GR, a GR value ([7]; 0.01 µM) of 0.316 GR and a GR value ([7]; 0.03162 µM) of 0.266 GR. It also gave a GR value ([7]; 0.1 µM) of 0.18 GR, a GR value ([7]; 0.3162 µM) of 0.0831 GR and a GR value ([7]; 1 µM) of 0.131 GR. For the same cell line, the GR value ([7]; 3.162 µM) was 0.0763 GR, the GR value ([7]; 10 µM) was -0.269 GR and the GR value ([8]; 0.0003162 µM) was 1.04 GR. For the same cell line, the GR value ([8]; 0.001 µM) was 1.02 GR, the GR value ([8]; 0.003162 µM) was 0.962 GR and the GR value ([8]; 0.01 µM) was 0.85 GR. It also gave a GR value ([8]; 0.03162 µM) of 0.626 GR, a GR value ([8]; 0.1 µM) of 0.476 GR and a GR value ([8]; 0.3162 µM) of 0.355 GR. For the same cell line, the GR value ([8]; 1 µM) was 0.297 GR, the GR value ([8]; 3.162 µM) was 0.254 GR and the GR value ([9]; 0.0001 µM) was 1.02 GR. It also gave a GR value ([9]; 0.0003162 µM) of 0.997 GR, a GR value ([9]; 0.001 µM) of 0.979 GR and a GR value ([9]; 0.003162 µM) of 0.967 GR. For the same cell line, the GR value ([9]; 0.01 µM) was 0.3 GR, the GR value ([9]; 0.03162 µM) was -0.247 GR and the GR value ([9]; 0.1 µM) was -0.276 GR. The GR value ([9]; 0.3162 µM) was -0.241 GR, the GR value ([9]; 1 µM) was -0.255 GR and the GR value ([10]; 0.0001 µM) was 1.08 GR. For the same cell line, the GR value ([10]; 0.0003162 µM) was 0.929 GR, the GR value ([10]; 0.001 µM) was 0.872 GR and the GR value ([10]; 0.003162 µM) was 0.964 GR. The GR value ([10]; 0.01 µM) was 0.873 GR, the GR value ([10]; 0.03162 µM) was 0.834 GR and the GR value ([10]; 0.1 µM) was 0.424 GR. The GR value ([10]; 0.3162 µM) was -0.258 GR, the GR value ([10]; 1 µM) was -0.272 GR and the GR value ([11]; 0.0003162 µM) was 1.04 GR. For the same cell line, the GR value ([11]; 0.001 µM) was 1.03 GR, the GR value ([11]; 0.003162 µM) was 0.998 GR and the GR value ([11]; 0.01 µM) was 0.951 GR. For the same cell line, the GR value ([11]; 0.03162 µM) was 0.947 GR, the GR value ([11]; 0.1 µM) was 0.931 GR and the GR value ([11]; 0.3162 µM) was 0.774 GR. For the same cell line, the GR value ([11]; 1 µM) was 0.657 GR, the GR value ([11]; 3.162 µM) was 0.0611 GR and the GR value ([12]; 0.0001 µM) was 1.08 GR. For the same cell line, the GR value ([12]; 0.0003162 µM) was 0.931 GR, the GR value ([12]; 0.001 µM) was 0.926 GR and the GR value ([12]; 0.003162 µM) was 0.941 GR. For the same cell line, the GR value ([12]; 0.01 µM) was 0.78 GR, the GR value ([12]; 0.03162 µM) was 0.366 GR and the GR value ([12]; 0.1 µM) was -0.103 GR. It also gave a GR value ([12]; 0.3162 µM) of -0.305 GR, a GR value ([12]; 1 µM) of -0.461 GR and a GR value ([13]; 0.001 µM) of 0.928 GR. It also gave a GR value ([13]; 0.003162 µM) of 0.899 GR, a GR value ([13]; 0.01 µM) of 0.858 GR and a GR value ([13]; 0.03162 µM) of 0.784 GR. The GR value ([13]; 0.1 µM) was 0.789 GR, the GR value ([13]; 0.3162 µM) was 0.727 GR and the GR value ([13]; 1 µM) was 0.604 GR. The GR value ([13]; 3.162 µM) was 0.544 GR, the GR value ([13]; 10 µM) was -0.327 GR and the GR value ([14]; 0.001 µM) was 0.893 GR. It also gave a GR value ([14]; 0.003162 µM) of 0.789 GR, a GR value ([14]; 0.01 µM) of 0.512 GR and a GR value ([14]; 0.03162 µM) of 0.349 GR. The GR value ([14]; 0.1 µM) was 0.236 GR, the GR value ([14]; 0.3162 µM) was 0.235 GR and the GR value ([14]; 1 µM) was 0.0993 GR. It also gave a GR value ([14]; 3.162 µM) of -0.189 GR, a GR value ([14]; 10 µM) of -0.268 GR and a GR value ([15]; 0.0001 µM) of 0.957 GR. It also gave a GR value ([15]; 0.0003162 µM) of 1.06 GR, a GR value ([15]; 0.001 µM) of 0.957 GR and a GR value ([15]; 0.003162 µM) of 1.02 GR. The GR value ([15]; 0.01 µM) was 1.08 GR, the GR value ([15]; 0.03162 µM) was 0.827 GR and the GR value ([15]; 0.1 µM) was 0.225 GR. The GR value ([15]; 0.3162 µM) was -0.0791 GR and the GR value ([15]; 1 µM) was -0.391 GR.
